Among the data in patent US7262199B2, “Tyrosine kinase inhibitors” (Merck & Co., Inc., priority 2002, dated 2007) are melting point values, retold here.

Regarding `c1ccc(-c2cnn3cc(-c4ccc(CCCN5CCOCC5)cc4)cnc23)cc1` [Compound 2-6, 6-[4-(3-morpholin-4-ylpropyl)phenyl]-3-phenylpyrazolo[1,5-a]pyrimidine], the melting point – broadly, the temperature, or range, at which the solid turns liquid – lay within 147 to 149 °C.
